The values that follow are results of earlier work, collected in patent US20030225129A1, “Polymorphs of clopidogrel hydrogensulfate” (priority 2002, published 2003).

The conditions of series [1]: in vivo.
Series [2] deals with platelet activity. As to conditions: after administration.
The subject of series [3] is platelet aggregation.

For the compound `COC(=O)[C@H](c1ccccc1Cl)N1CCc2sccc2C1` [clopidogrel, methyl (+)-(S)-∝-(o-chlorophenyl)-6,7-dihydrothieno[3,2-c]pyridine-5(4H)-acetate], the “gastrointestinal bleeding relative to aspirin” value in series [1] was “much less gastrointestinal bleeding than aspirin”. The “duration of antiplatelet activity” value in series [2] was “up to ten days after administration”. In addition, the “effectiveness relative to aspirin at stated dosages” value in series [3] (75 mg of base equivalent versus 325 mg of aspirin) is listed as “more effective”. Further, the “effectiveness in blocking platelet aggregation relative to aspirin” value in series [3] (versus aspirin, even at much lower dosage) is given as “more effective in blocking platelet aggregation than aspirin”.
